Data reported in patent US11731977B2, “SGC stimulators” (Cyclerion Therapeutics, Inc., priority 2016, dated 2023).
Like-named read-outs stand apart in the source and are kept apart here.

Tests used:
[1] = Non-human primate (NHP) CSF pharmacokinetic properties (Example 6); assay type: in vivo, Cynomolgus monkeys; conditions: male, Cynomolgus monkey
Method: Protocol PK in NHP was determined following intravenous and oral dosing. For the intravenous (IV) experiments, a group of 4 male Cynomolgus monkeys were used. The IV group was dosed with 0.3 mg/kg of a compound formulated as a solution in 10% PEG-400, 25% of a 20% Solutol HS 15 in Water, and 65% DPBS. IV doses were administered by injection and delivered via catheter into the cephalic vein. For the oral (PO) experiments, a group of 4 male Cynomolgus monkeys were used. The PO group was dosed with 1 mg/kg of a compound formulated as a suspension in 1% HPMC E5, 0.2% Tween 80, 0.5% MC in water. PO doses were administered by oral gavage and delivered via gelatin capsule.
Plasma and CSF samples were collected as follows: samples of CSF and blood were collected at 1, 4 and 24 hours post IV dosing and 2, 8 and 24 hours post PO dosing. CSF samples (0.05 mL) were collected either the cisterna magna (primary site) or the lumbosacral region (L4/5) via direct needle puncture at the appropriate time points. Blood samples (0.25 mL) were collected from a peripheral vein. These samples were kept on ice until processed for plasma. Blood samples were centrifuged at 3200 rpm for 5 minutes at approximately 5° C. within 1 hour of collection. Plasma was directly transferred to a 96-well plate tube (0.125 mL). Plug caps were placed on the tubes and the tubes frozen at approximately −70° C. and stored until analysis. Plasma was collected and analyzed for the presence of a compound.
Quantitation of Compounds. The compound of the invention and the internal standard were extracted from plasma and CSF by precipitation. Samples were analyzed using liquid chromatography (LC) with tandem mass spectrometric detection (MS/MS) using electrospray ionization. The standard curve range was from 1 to 1000 ng/mL. Results of the compounds described herein in this assay are illustrated in Tables 6a and 6b below (0.3 mg/kg IV dose, 1 mg/kg PO dose).
Kp,uu is defined as the concentration ratio of unbound drug in CSF to unbound drug in plasma. Unbound drug in plasma (or free plasma concentration) is calculated by multiplying the total plasma concentration by the unbound fraction as determined by plasma protein binding. The CSF concentration is then divided by the free plasma concentration to determine the Kp,uu. (See e.g., Di et al., J. Med Chem., 56, 2-12 (2013))

[2] = tested on: cAMP response element-binding protein (CREB); test: pCREB phosphorylation in rat primary neurons (Example 12); assay type: cell-based; conditions: Primary neuron, 10 μM DETA-NONOate
Source text: Objective. To assess the ability of Compound I-1 to activate cAMP response element-binding protein (CREB) in rat primary neurons. CREB is a cellular transcription factor. It binds to DNA sequences called cAMP response elements (CRE), and regulates transcription of the downstream genes (See Bourtchuladze R, et al., Cell 1994; 79 (1): 59-68). […] CREB proteins are activated by phosphorylation of Serine 133 by various kinases, including cAMP-dependent protein kinase or Protein Kinase A (PKA), cGMP-dependent protein kinase or Protein Kinase G (PKG), and Ca2+/calmodulin-dependent protein kinases. (See Shaywitz A J and Greenberg M E, Annual Review of Biochemistry 1999; 68 (1): 821-861 and Wong J C, et al., J Cell Biochem 2012: 113(11):3587-98). Stimulation of CREB could have therapeutic benefits for diseases in which cognition, neuronal plasticity, and or neuronal function is impaired.
Compounds. Compound I-1 was dissolved in DMSO as a 10 mM solution and stored at −20° C. […]
Assay Conditions. […] Medium was removed and cell were lysed and assay was performed according to Cisbio protocol (phospho-CREB (Ser133) catalog #64CREPEG) and the plate was read using Envision instrument (PerkinElmer).
Data Analysis. Data were analyzed with a 4-parameter fit (log(agonist) vs. response—variable slope) using GraphPad Prism Software v.7. […]

- Kp uu at 1 h ([1]; CSF / unbound plasma, 0.3 mg/kg IV, @ 1 h): 1.8
- Kp uu at 4 h ([1]; CSF / unbound plasma, 0.3 mg/kg IV, @ 4 h): 3
- Kp uu at 24 h ([1]; CSF / unbound plasma, 0.3 mg/kg IV): 2.8
- Kp uu at 2 h ([1]; CSF / unbound plasma, 1 mg/kg PO, @ 2 h): 1.8
- Kp uu at 8 h ([1]; CSF / unbound plasma, 1 mg/kg PO, @ 8 h): 2.5
- Kp uu at 24 h ([1]; CSF / unbound plasma, 1 mg/kg PO): 2.1
- concentration at 1 h ([1]; CSF, 0.3 mg/kg IV, @ 1 h, read-out: CSF Conc.): 27 nM
- concentration at 4 h ([1]; CSF, 0.3 mg/kg IV, @ 4 h, read-out: CSF Conc.): 20 nM
- concentration at 24 h ([1]; CSF, 0.3 mg/kg IV, read-out: CSF Conc.): 6 nM
- concentration at 2 h ([1]; CSF, 1 mg/kg PO, @ 2 h, read-out: CSF Conc.): 42 nM
- concentration at 8 h ([1]; CSF, 1 mg/kg PO, @ 8 h, read-out: CSF Conc.): 31 nM
- concentration at 24 h ([1]; CSF, 1 mg/kg PO, read-out: CSF Conc.): 11 nM
- EC50 ([2]; read-out: 95% confidence interval of EC50, phosphorylation of CREB at Ser133): 0.5 to 17.8 nM
- EC50 ([2]; 0.5 h, 30 min, read-out: EC50, phosphorylation of CREB at Ser133): 3 nM
Compound: Fc1ccccc1Cc1nc(-c2nc(C(F)(F)F)n[nH]2)cn2ccnc12 [Compound I-1, 8-(2-fluorobenzyl)-6-(3-(trifluoromethyl)-1H-1,2,4-triazol-5-yl)imidazo[1,2-a]pyrazine]
